Measured values from patent US8871681B2, “Herbicidal compositions comprising 4-amino-3-chloro-5-fluoro-6-(4-chloro-2-fluoro-3-methoxyphenyl) pyridine-2-carboxylic acid or a derivative thereof and certain sulfonylureas” (Dow AgroSciences LLC, priority 2012, dated 2014).

Assays:
[1] = system: BRAPP (Brachiaria platyphylla, broadleaf signalgrass); test: Postemergence foliar-applied weed control, direct seeded rice, greenhouse (Example I); type: in vivo, Brachiaria platyphylla (Griseb.) Nash; settings: Urochloa platyphylla, post-emergence
Excerpt: (§1) Seeds or nutlets of the desired test plant species were planted in a soil matrix prepared by mixing a loam or sandy loam soil (e.g., 28.6 percent silt, 18.8 percent clay, and 52.6 percent sand, with a pH of about 5.8 and an organic matter content of about 1.8 percent) and calcareous grit in an 80 to 20 ratio. The soil matrix was contained in plastic pots with a volume of 1 quart and a surface area of 83.6 square centimeters (cm^2). When required to ensure good germination and healthy plants, a fungicide treatment and/or other chemical or physical treatment was applied. The plants were grown for 8-22 days in a greenhouse with an approximate 14 h photoperiod which was maintained at about 29° C. during the day and 26° C. during the night. Nutrients (Peters Excel® 15-5-15 5-Ca 2-Mg and iron chelate) were applied in the irrigation solution as needed and water was added on a regular basis. Supplemental lighting was provided with overhead metal halide 1000-Watt lamps as necessary. The plants were employed for testing when they reached the first through fourth true leaf stage.
(§2) Treatments consisted of the acid or esters of 4-amino-3-chloro-5-fluoro-6-(4-chloro-2-fluoro-3-methoxy-phenyl)pyridine-2-carboxylic acid (Compound A), each formulated as an SC, and various herbicidal components alone and in combination. Forms of compound A were applied on an acid equivalent basis.
(§3) Other herbicidal components were applied on an active ingredient basis and included acetolactate synthase (ALS)-inhibiting herbicides (sulfonylurea chemical class) azimsulfuron formulated as Gulliver®, bensulfuron-methyl formulated as Londax® 60DF, cyclosulfamuron (technical material), ethoxysulfuron formulated as Sunrice® 15 WDG, flazasulfuron formulated as Katana®, flucetosulfuron formulated as Sukedachi® 1KG G, foramsulfuron formulated as Option®, imazosulfuron formulated as Brazzos® WG, iodosulfuron-methyl-sodium formulated as Hussar®, metsulfuron-methyl formulated as Lorate®, nicosulfuron formulated as Accent®, orthosulfamuron formulated as Strada® WG, primisulfuron-methyl (technical material), propyrisulfuron formulated as Zeta One®, rimsulfuron formulated as Matrix® WG, sulfometuron-methyl formulated as Oust®, and trifloxysulfuron-sodium formulated as Monument® 75WG.
(§4) Treatment requirements were calculated based upon the rates being tested, the concentration of active ingredient or acid equivalent in the formulation, and a 12 mL application volume at a rate of 187 L/ha.
(§5) For treatments comprised of formulated compounds, measured amounts of compounds were placed individually in 25 mL glass vials and diluted in a volume of 1.25% (v/v) Agri-Dex® crop oil concentrated to obtain 12× stock solutions. […] Application solutions were prepared by adding an appropriate amount of each stock solution (e.g., 1 mL) and diluted to the appropriate final concentrations with the addition of 10 mL of an aqueous mixture of 1.25% (v/v) crop oil concentrate so that the final spray solutions contained 1.25+/−0.05% (v/v) Agrcrop oil concentrate.
(§6) For treatments comprised of formulated and technical compounds, weighed amounts of the technical materials were placed individually in 25 mL glass vials and dissolved in a volume of 97:3 v/v acetone/DMSO to obtain 12× stock solutions, and measured amounts of the formulated compounds were placed individually in 25 mL glass vials and diluted in a volume of 1.25% (v/v) crop oil concentrate to obtain 12× stock solutions. […] Application solutions were prepared by adding an appropriate amount of each stock solution (e.g., 1 mL) and diluted to the appropriate final concentrations with the addition of an appropriate amount of an aqueous mixture of 1.5% (v/v) crop oil concentrate so that the final spray solutions contained 1.25% (v/v) crop oil concentrate. […]

[2] = system: ECHOR (Echinochloa oryzoides, early watergrass); test: In-water applied weed control, transplanted paddy rice, greenhouse (Example II); type: in vivo, Echinochloa oryzoides (Ard.) Fritsch
Description: (§7) Weed seeds or nutlets of the desired test plant species were planted in puddled soil (mud) prepared by mixing a shredded, non-sterilized mineral soil (50.5 percent silt, 25.5 percent clay, and 24 percent sand, with a pH of about 7.6 and an organic matter content of about 2.9 percent) and water at a 1:1 volumetric ratio. The prepared mud was dispensed in 365 mL aliquots into 16-ounce (oz.) non-perforated plastic pots with a surface area of 86.59 square centimeters (cm^2) leaving a headspace of 3 centimeters (cm) in each pot. Rice seeds were planted in Sun Gro MetroMix® 306 planting mixture, which typically has a pH of 6.0 to 6.8 and an organic matter content of about 30 percent, in plastic plug trays. Seedlings at the second or third leaf stage of growth were transplanted into 860 mL of mud contained in 32-oz. non-perforated plastic pots with a surface area of 86.59 cm^2 4 days prior to herbicide application. The paddy was created by filling the headspace of the pots with 2.5 to 3 cm of water. When required to ensure good germination and healthy plants, a fungicide treatment and/or other chemical or physical treatment was applied. The plants were grown for 4-22 days in a greenhouse with an approximate 14 h photoperiod which was maintained at about 29′C during the day and 26° C. during the night. Nutrients were added as Osmocote® (19:6:12, N:P:K+minor nutrients) at 2 g per 16-oz. pot and 4 g per 32-oz. pot. Water was added on a regular basis to maintain the paddy flood, and supplemental lighting was provided with overhead metal halide 1000-Watt lamps as necessary. The plants were employed for testing when they reached the first through fourth true leaf stage.
(§8) Treatments consisted of the acid or esters of 4-amino-3-chloro-5-fluoro-6-(4-chloro-2-fluoro-3-methoxy-phenyl)pyridine-2-carboxylic acid (compound A) each formulated as an SC and various herbicidal components alone and in combination. Forms of compound A were applied on an acid equivalent basis.
(§9) Other herbicidal components were applied on an active ingredient basis and included acetolactate synthase (ALS)-inhibiting herbicides (sulfonylurea chemical class), azimsulfuron formulated as Gulliver®, bensulfuron-methyl formulated as Londax® 60DF, cyclosulfamuron (technical grade materail), ethoxysulfuron formulated as Sunrice® 15 WDG, flucetosulfuron formulated as Sukedachi® 1KG G, imazosulfuron formulated as Brazzos®, metsulfuron-methyl formulated as Lorate®, nicosulfuron formulated as Accent®, orthosulfamuron formulated as Strada® WG, propyrisulfuron formulated as Zeta One®, and rimsulfuron formulated as Matrix® WG.
(§10) Treatment requirements for each compound or herbicidal component were calculated based upon the rates being tested, the concentration of active ingredient or acid equivalent in the formulation, an application volume of 2 mL per component per pot, and an application area of 86.59 cm^2 per pot.
(§11) For formulated compounds, a measured amount was placed in an individual 100 or 200 mL glass vial and was dissolved in a volume of 1.25% (v/v) Agri-Dex® crop oil concentrate to obtain application solutions.
(§12) For technical grade compounds, a weighed amount was placed in an individual 100 to 200 mL glass vial and was dissolved in a volume of acetone to obtain concentrated stock solutions. […] The concentrated stock solutions obtained were diluted with an equivalent volume of an aqueous mixture containing 2.5% (v/v) crop oil concentrate so that the final application solutions contained 1.25% (v/v) crop oil concentrate.
(§13) Applications were made by injecting with a pipetter appropriate amounts of the application solutions, individually and sequentially, into the aqueous layer of the paddy. Control plants were treated in the same manner with the solvent blank. Applications were made so that all treated plant material received the same concentrations of acetone and crop oil concentrate. […]

[3] = system: LEFCH (Leptochloa chinensis, Chinese sprangletop); test: as above; type: in vivo, Leptochloa chinensis (L.) Nees
Description: as §7, §8, §9, §10, §11, §12, §13

[4] = system: CYPIR (Cyperus iria, rice flatsedge); test: Postemergence foliar-applied weed control, direct seeded rice, greenhouse (Example I); type: in vivo, Cyperus iria L.; settings: 22 DAA
Excerpt: as §1, §2, §3, §4, §5, §6

[5] = system: ISCRU (Ischaemum rugosum, saramollagrass); test: as above; type: in vivo, Ischaemum rugosum Salisb.; settings: 21 DAA
Excerpt: as §1, §2, §3, §4, §5, §6

[6] = system: MATCH (Chamomilla chamomilla, scented mayweed); test: Post-emergence foliar-applied weed control in cereal crops, greenhouse (Example III); type: in vivo, Chamomilla chamomilla (L.) Rydb.
Description: (§14) Seeds of the desired test plant species were planted in Sun Gro MetroMix® 306 planting mixture, which typically has a pH of 6.0 to 6.8 and an organic matter content of about 30 percent, in plastic pots with a surface area of 103.2 square centimeters (cm^2). When required to ensure good germination and healthy plants, a fungicide treatment and/or other chemical or physical treatment was applied. The plants were grown for 7-36 days in a greenhouse with an approximate 14 hour photoperiod which was maintained at about 18° C. during the day and 17° C. during the night. Nutrients and water were added on a regular basis and supplemental lighting was provided with overhead metal halide 1000-Watt lamps as necessary. The plants were employed for testing when they reached the second or third true leaf stage.
(§15) Treatments consisted of the benzyl ester of 4-amino-3-chloro-5-fluoro-6-(4-chloro-2-fluoro-3-methoxy-phenyl)pyridine-2-carboxylic acid (Compound A), formulated as an SC (suspension concentrate), and a second cereal herbicide alone and in combination.
(§16) Measured aliquot of benzyl ester of 4-amino-3-chloro-5-fluoro-6-(4-chloro-2-fluoro-3-methoxy-phenyl)pyridine-2-carboxylic acid (Compound A) was placed in 25 milliliter (mL) glass vials and diluted in a volume of 1.25% (v/v) Agri-dex crop oil concentrated to obtain stock solutions. Compound requirements are based upon a 12 mL application volume at a rate of 187 liters per hectare (L/ha). Spray solutions of the second cereal herbicide and experimental compound mixtures were prepared by adding the stock solutions to the appropriate amount of dilution solution to form 12 mL spray solution with active ingredients in two- and three-way combinations. Formulated compounds were applied to the plant material with an overhead Mandel track sprayer equipped with an 8002E nozzle calibrated to deliver 187 L/ha over an application area of 0.503 square meters (m^2) at a spray height of 18 inches (46 cm) above average plant canopy. Control plants were sprayed in the same manner with the solvent blank.
(§17) The treated plants and control plants were placed in a greenhouse as described above and watered by sub-irrigation to prevent wash-off of the test compounds. After 20-22 days, the condition of the test plants as compared with that of the control plants was determined visually and scored on a scale of 0 to 100 percent where 0 corresponds to no injury and 100 corresponds to complete kill.
(§18) Colby's equation was used to determine the herbicidal effects expected from the mixtures (Colby, S. R. 1967. Calculation of the synergistic and antagonistic response of herbicide combinations. Weeds 15:20-22.).
(§19) The following equation was used to calculate the expected activity of mixtures containing two active ingredients, A and B: Expected=A+B−(A×B/100)

[7] = system: VERPE (Veronica persica, bird's-eye speedwell); test: as above; type: in vivo, Veronica persica Poir.
Description: as §14, §15, §16, §17, §18, §19

[8] = system: CIRAR (Cirsium arvense, Canada thistle); test: as above; type: in vivo, Cirsium arvense (L.) Scop.; settings: foliar-applied, after 20-22 days
Description: as §14, §15, §16, §17, §18, §19

[9] = system: ECHCG (Echinochloa crusgalli, barnyardgrass); test: Postemergence foliar-applied weed control, direct seeded rice, greenhouse (Example I); type: in vivo, Echinochloa crusgalli (L.) Beauv.; settings: 27 DAA
Excerpt: as §1, §2, §3, §4, §5, §6

[10] = system: SCPMA (Bolboschoenus maritimus or Schoenoplectus maritimus, sea clubrush); test: In-water applied weed control, transplanted paddy rice, greenhouse (Example II); type: in vivo, Bolboschoenus maritimus (L.) Palla
Description: as §7, §8, §9, §10, §11, §12, §13

[11] = Table 55, after 20-22 days, 3 gai/ha alone

Compound: CCOc1ccccc1OS(=O)(=O)NC(=O)Nc1nc(OC)cc(OC)n1 [Ethoxysulfuron, 2-ethoxyphenyl[[(4,6-dimethoxy-2-pyrimidinyl)amino]carbonyl]sulfamate, reference compound]
- pest or weed control at 7.5 g/ha ([1]; 528 h, 22 DAA, 7.5 gai/ha, read-out: Visual Weed Control (%) Obs): 0%
- pest or weed control at 15 g/ha ([1]; 528 h, 22 DAA, 15 gai/ha, read-out: Visual Weed Control (%) Obs): 0%
- pest or weed control at 30 g/ha ([1]; 528 h, 22 DAA, 30 gai/ha, read-out: Visual Weed Control (%) Obs): 0%
- Visual Weed Control (%) - 22 DAA ECHOR Obs ([2]; Table 34, 7.5 gai/ha alone): 10%
- Visual Weed Control (%) - 22 DAA ECHOR Obs ([2]; Table 35, 7.5 gai/ha alone): 10%
- Visual Weed Control (%) - 22 DAA ECHOR Obs ([2]; Table 35, 15 gai/ha alone): 20%
- Visual Weed Control (%) - 22 DAA LEFCH Obs ([3]; Table 34, 15 gai/ha alone): 0%
- Visual Weed Control (%) - 22 DAA LEFCH Obs ([3]; Table 35, 7.5 gai/ha alone): 0%
- Visual Weed Control (%) - 22 DAA LEFCH Obs ([3]; Table 35, 15 gai/ha alone): 0%
- Visual Weed Control (%) Obs ([4]; 7.5 gai/ha): 50%
- Visual Weed Control (%) Obs ([4]; 15 gai/ha): 50%
- Visual Weed Control (%) Obs ([4]; 30 gai/ha): 85%
- Visual Weed Control (%) Obs ([5]; 17.5 gai/ha): 0%
- Visual Weed Control (%) Obs ([5]; 70 gai/ha): 0%

Compound: COC(=O)c1ccc(CNS(C)(=O)=O)cc1S(=O)(=O)NC(=O)Nc1nc(OC)cc(OC)n1 [Mesosulfuron-methyl]
- Weed Control MATCH Obs [6, 11]: 40%
- Weed Control VERPE Obs [7, 11]: 5%
- Weed Control CIRAR Obs ([8]; Table 55, 3 gai/ha alone): 78%

Compound: COC(=O)c1ccccc1S(=O)(=O)NC(=O)N(C)c1nc(C)nc(OC)n1 [Tribenuron-methyl]
- Weed Control MATCH Obs ([6]; Table 59 (cereal), after 20-22 days, 2.2 gai/ha alone): 90%
- pest or weed control at 2.2 g/ha ([8]; Cirsium arvense, post-emergence, Table 59 (cereal), 2.2 gai/ha alone, read-out: Weed Control CIRAR Obs): 50%

Compound: COC(=O)c1ccc(C(F)(F)F)nc1S(=O)(=O)NC(=O)Nc1nc(OC)cc(OC)n1 [Flupyrsulfuron-methyl sodium]
- Weed Control VERPE Obs ([7]; Table 53, after 20-22 days, 5 gai/ha alone): 0%
- pest or weed control at 5 g/ha ([8]; Cirsium arvense, post-emergence, Table 53, 5 gai/ha alone, read-out: Weed Control CIRAR Obs): 75%

Compound: CCCCOC(=O)c1nc(-c2ccc(Cl)c(OC)c2F)c(F)c(N)c1Cl [Compound A n-Butyl Ester]
- pest or weed control at 4.38 g/ha ([1]; 504 h, read-out: Visual Weed Control (%) Obs, 21 DAA, 4.38 gae/ha): 0%
- pest or weed control at 8.75 g/ha ([1]; 504 h, read-out: Visual Weed Control (%) Obs, 21 DAA, 8.75 gae/ha): 40%
- Visual Weed Control (%) Obs ([9]; 4.38 gae/ha): 0%
- Visual Weed Control (%) Obs ([9]; 8.75 gae/ha): 0%
- Visual Weed Control (%) - 20 DAA ECHOR Obs ([2]; Table 30, 35 gae/ha alone): 28%
- Visual Weed Control (%) - 20 DAA ECHOR Obs ([2]; Table 30, 70 gae/ha alone): 45%
- Visual Weed Control (%) - 20 DAA SCPMA Obs ([10]; Table 40, 35 gae/ha alone): 0%
- Visual Weed Control (%) - 20 DAA SCPMA Obs ([10]; Table 40, 70 gae/ha alone): 0%
